Columns and labels:
winter wheat [1] = assay: Test E winter wheat; assay type: in vivo, Triticum aestivum; settings: Postemergence
In short: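 Compound formulated with surfactant in a non-phytotoxic solvent (postemergence: young 1- to 4-leaf plants); held in greenhouse approx. 21–28 days; visual assessment against untreated plants.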

blackgrass = assay: Test E blackgrass; assay type: in vivo, Alopecurus myosuroides; settings: Preemergence
crabgrass = assay: Test B pre/postemergence crabgrass; assay type: in vivo, Digitaria sanguinalis
In short: (§1)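 Test chemicals in a non-phytotoxic solvent mixture with surfactant were sprayed preemergence onto planted seeds and postemergence onto plants 2 to 18 cm tall (1- to 4-leaf stage). After twelve to sixteen days in a greenhouse, injury was visually rated against untreated controls from 0 (no effect) to 10 (complete control).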

winter barley = assay: Test E winter barley; assay type: in vivo, Hordeum vulgare; settings: Preemergence
winter wheat [2] = assay: Test E winter wheat; assay type: in vivo, Triticum aestivum; settings: Preemergence
duck salad = assay: Test B flood test duck salad; assay type: in vivo, Heteranthera limosa
In short: (§2)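 Read-out is a visual response score from 0 (no effect) to 10 (complete control), assigned by comparison with untreated controls. Treatment was applied at the 2-leaf stage, and plants stayed in the greenhouse for twelve to sixteen days before scoring.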

bamyardgrass = assay: Test B flood test barnyardgrass; assay type: in vivo, Echinochloa crus-galli
In short: as §2

Italian ryegrass = assay: Test E Italian ryegrass; assay type: in vivo, Lolium multiflorum; settings: Preemergence
purple nutsedge = assay: Test B pre/postemergence purple nutsedge; assay type: in vivo, Cyperus rotundus
In short: as §1

green foxtail = assay: Test E green foxtail; assay type: in vivo, Setaria viridis; settings: Preemergence
wild oat = assay: Test E wild oat; assay type: in vivo, Avena fatua; settings: Preemergence
[3] = Rate 250 g/ha, 0 to 100 scale, 0 is no effect, 100 is complete control
[4] = Rate 500 g/ha, 0 to 100 scale (0 no effect, 100 complete control)
[5] = Rate 1000 g/ha, 0 to 100 scale, 0 no effect, 100 complete control
[6] = Preemergence, Rate 250 g/ha, scale of 0 to 10 where 0 is no effect and 10 is complete control
[7] = Preemergence, Rate 500 g/ha, scale of 0 to 10 where 0 is no effect and 10 is complete control
[8] = Rate 62 g/ha, Postemergence, scale 0 to 10 (0 no effect, 10 complete control)
[9] = Rate 125 g/ha, Postemergence, scale of 0 to 10 where 0 is no effect and 10 is complete control
[10] = Rate 125 g/ha, Preemergence, scale of 0 to 10 where 0 is no effect and 10 is complete control
[11] = Rate 250 g/ha, Postemergence, scale of 0 to 10 where 0 is no effect and 10 is complete control
[12] = Rate 250 g/ha, 0 to 100 scale, 0 no effect, 100 complete control
[13] = Rate 62 g/ha, headed Pre-emergence (flood test species), scale 0 to 10 (0 no effect, 10 complete control)
[14] = Rate 125 g/ha, Pre-emergence, flood test species, scale 0 to 10 where 0 is no effect and 10 is complete control
[15] = Rate 250 g/ha, Pre-emergence, flood-test species, scale 0 to 10, 0 is no effect, 10 is complete control
[16] = Rate 500 g/ha, Pre-emergence, flood test species, scale 0 to 10 (0 no effect, 10 complete control)
[17] = Rate 125 g/ha, 0 to 100 scale (0 no effect, 100 complete control)
[18] = Postemergence, Rate 125 g/ha, scale 0 to 10, 0 is no effect, 10 is complete control
[19] = Postemergence, Rate 250 g/ha, scale 0 to 10, 0 is no effect, 10 is complete control
[20] = Preemergence, Rate 62 g/ha, scale 0 to 10 (0 no effect, 10 complete control)
[21] = Rate 62 g/ha, Postemergence, scale of 0 to 10 where 0 is no effect and 10 is complete control
[22] = Rate 500 g/ha, Postemergence, scale 0 to 10, 0 no effect, 10 complete control
[23] = Rate 62 g/ha, flood test species, Pre-emergence, visual evaluation after twelve to sixteen days

CCN(CC)C(=O)n1oc(=O)n(C2CC2)c1=O [Compound 297]
Plant response rating, Wheat (winter) (winter wheat [1]; [3]): 50
Plant response rating, Wheat (winter) (winter wheat [1]; Rate 1000 g/ha, 0 to 100 scale where 0 is no effect and 100 is complete control): 70
Plant response rating, Wheat (winter) (winter wheat [1]; Rate 500 g/ha, 0 to 100 scale, 0 is no effect, 100 is complete control): 60
Plant response rating, Blackgrass (blackgrass; Rate 250 g/ha, 0 to 100 scale): 40
Plant response rating, Blackgrass (blackgrass; [4]): 20
Plant response rating, Blackgrass (blackgrass; [5]): 50
Crabgrass plant response rating (crabgrass; Preemergence, Rate 62 g/ha, scale of 0 to 10 where 0 is no effect and 10 is complete control): 0
Crabgrass plant response rating (crabgrass; [6]): 7
Plant response rating, Crabgrass (crabgrass; [7]): 7
Crabgrass plant response rating (crabgrass; [8]): 0
Crabgrass plant response rating (crabgrass; [9]): 0
Crabgrass plant response rating (crabgrass; [10]): 2
Plant response rating, Crabgrass (crabgrass; [11]): 0
Plant response rating, Barley (winter) (winter barley; [12]): 50
Plant response rating, Barley (winter) (winter barley; [4]): 55
Plant response rating, Barley (winter) (winter barley; [5]): 60
Plant response rating, Wheat (winter) (winter wheat [2]; Rate 250 g/ha, 0 to 100 scale): 30
Plant response rating, Wheat (winter) (winter wheat [2]; [4]): 60
Plant response rating, Wheat (winter) (winter wheat [2]; [5]): 70
Ducksalad plant response rating (duck salad; [13]): 0
Ducksalad plant response rating (duck salad; [14]): 0
Ducksalad plant response rating (duck salad; [15]): 0
Ducksalad plant response rating (duck salad; [16]): 0
Barnyardgrass plant response rating (bamyardgrass; [13]): 0
Barnyardgrass plant response rating (bamyardgrass; [14]): 0
Barnyardgrass plant response rating (bamyardgrass; [15]): 0
Barnyardgrass plant response rating (bamyardgrass; [16]): 0
Plant response rating, I. Ryegrass (Italian ryegrass; Rate 250 g/ha, 0 to 100 scale): 60
Plant response rating, I. Ryegrass (Italian ryegrass; [4]): 50
Plant response rating, I. Ryegrass (Italian ryegrass; [5]): 40
Nutsedge plant response rating (purple nutsedge; [6]): 0
Plant response rating, Nutsedge (purple nutsedge; [7]): 0
Nutsedge plant response rating (purple nutsedge; [8]): 0
Nutsedge plant response rating (purple nutsedge; [9]): 0
Nutsedge plant response rating (purple nutsedge; [10]): 0
Plant response rating, Nutsedge (purple nutsedge; [11]): 0
Plant response rating, Green foxtail (green foxtail; Rate 250 g/ha, 0 to 100 scale): 60
Plant response rating, Green foxtail (green foxtail; [4]): 60
Plant response rating, Green foxtail (green foxtail; [5]): 60
Plant response rating, Wild oat (wild oat; Rate 250 g/ha, 0 to 100 scale): 70
Plant response rating, Wild oat (wild oat; [4]): 60
Plant response rating, Wild oat (wild oat; [5]): 70

CC(C)N(C(=O)n1oc(=O)n(C(C)CCl)c1=O)c1ccc(F)cc1 (centres unmarked) [Compound 367]
Plant response rating, Wheat (winter) (winter wheat [1]; Rate 125 g/ha, 0 to 100 scale, 0 is no effect, 100 is complete control): 50
Plant response rating, Wheat (winter) (winter wheat [1]; [3]): 40
Plant response rating, Blackgrass (blackgrass; [17]): 60
Plant response rating, Blackgrass (blackgrass; Rate 250 g/ha, 0 to 100 scale): 30
Plant response rating, Crabgrass (crabgrass; [18]): 2
Plant response rating, Crabgrass (crabgrass; [19]): 8
Plant response rating, Crabgrass (crabgrass; [20]): 6
Crabgrass plant response rating (0 to 10 scale) (crabgrass; Preemergence, Rate 125 g/ha): 9
Crabgrass plant response rating (crabgrass; [6]): 10
Crabgrass plant response rating (crabgrass; [7]): 10
Crabgrass plant response rating (crabgrass; [21]): 0
Plant response rating, Crabgrass (crabgrass; [22]): 8
Plant response rating, Barley (winter) (winter barley; [17]): 20
Plant response rating, Barley (winter) (winter barley; [12]): 30
Plant response rating, Wheat (winter) (winter wheat [2]; [17]): 60
Plant response rating, Wheat (winter) (winter wheat [2]; Rate 250 g/ha, 0 to 100 scale): 40
Plant response rating, Ducksalad (0 to 10 scale, 0 is no effect, 10 is complete control) (duck salad; [23]): 0
Ducksalad plant response rating (duck salad; [14]): 0
Ducksalad plant response rating (duck salad; [15]): 0
Ducksalad plant response rating (duck salad; [16]): 0
Plant response rating, Barnyardgrass (0 to 10 scale, 0 is no effect, 10 is complete control) (bamyardgrass; [23]): 0
Barnyardgrass plant response rating (bamyardgrass; [14]): 0
Barnyardgrass plant response rating (bamyardgrass; [15]): 0
Barnyardgrass plant response rating (bamyardgrass; [16]): 0
Plant response rating, I. Ryegrass (Italian ryegrass; [17]): 60
Plant response rating, I. Ryegrass (Italian ryegrass; Rate 250 g/ha, 0 to 100 scale): 60
Plant response rating, Nutsedge (purple nutsedge; [18]): 0
Plant response rating, Nutsedge (purple nutsedge; [19]): 0
Plant response rating, Nutsedge (purple nutsedge; [20]): 0
Nutsedge plant response rating (0 to 10 scale) (purple nutsedge; Preemergence, Rate 125 g/ha): 0
Nutsedge plant response rating (purple nutsedge; [6]): 0
Nutsedge plant response rating (purple nutsedge; [7]): 0
Nutsedge plant response rating (purple nutsedge; [21]): 0
Plant response rating, Nutsedge (purple nutsedge; [22]): 3
Plant response rating, Green foxtail (green foxtail; [17]): 70
Plant response rating, Green foxtail (green foxtail; Rate 250 g/ha, 0 to 100 scale): 50
Plant response rating, Wild oat (wild oat; [17]): 55
Plant response rating, Wild oat (wild oat; Rate 250 g/ha, 0 to 100 scale): 50

From patent US6737383B1, “Herbicidal oxadiazolidines” (priority 1999, dated 2004)
